Key:
STAT6 [1] = biological target: T1, STAT6 (Homo sapiens, UniProt P42226); test: Fluorescence polarization competition with FAM-labelled IL-4Rα Tyr631 phosphopeptide for binding to STAT6; details: competition with FAM-Ala-pTyr-Lys-Pro-Phe-Gln-Asp-Leu-Ile-NH2
T1 sequence (P42226 1-847): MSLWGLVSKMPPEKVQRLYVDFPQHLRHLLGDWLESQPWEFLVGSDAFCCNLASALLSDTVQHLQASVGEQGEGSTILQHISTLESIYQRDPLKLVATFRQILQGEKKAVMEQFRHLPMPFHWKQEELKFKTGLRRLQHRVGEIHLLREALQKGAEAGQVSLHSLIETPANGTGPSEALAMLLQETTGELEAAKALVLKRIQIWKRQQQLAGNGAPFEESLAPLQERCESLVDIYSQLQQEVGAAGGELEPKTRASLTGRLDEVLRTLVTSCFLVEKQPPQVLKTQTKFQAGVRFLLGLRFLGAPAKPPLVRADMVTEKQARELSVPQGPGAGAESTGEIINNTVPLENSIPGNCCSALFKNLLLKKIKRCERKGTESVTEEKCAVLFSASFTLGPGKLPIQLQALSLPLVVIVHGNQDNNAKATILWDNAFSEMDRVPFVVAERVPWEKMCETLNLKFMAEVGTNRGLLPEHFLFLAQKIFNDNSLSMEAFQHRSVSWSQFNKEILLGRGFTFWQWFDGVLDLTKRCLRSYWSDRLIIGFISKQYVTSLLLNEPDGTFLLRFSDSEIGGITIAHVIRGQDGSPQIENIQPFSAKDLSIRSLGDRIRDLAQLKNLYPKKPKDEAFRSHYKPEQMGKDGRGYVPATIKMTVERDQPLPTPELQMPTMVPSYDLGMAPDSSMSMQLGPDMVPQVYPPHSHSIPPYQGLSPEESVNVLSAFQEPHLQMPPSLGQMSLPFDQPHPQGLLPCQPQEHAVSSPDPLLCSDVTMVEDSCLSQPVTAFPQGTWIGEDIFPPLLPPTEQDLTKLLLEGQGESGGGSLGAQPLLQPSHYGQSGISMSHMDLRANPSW
Text: The following structures as phosphate esters were synthesized and assayed them for the ability to compete with FAM-Ala-pTyr-Lys-Pro-Phe-Gln-Asp-Leu-Ile-NH2, derived from Tyr631 of IL-4Rα, for binding to STAT6 using fluorescence polarization (FAM=5-carboxyfluorescein). The fluorescence polarization methodology was adapted from Wu et al., 1997, which is incorporated herein by reference. Amide bond replacements, cyclic amides, and cyclic lactams in the central part of the compound were explored.

STAT6 [2] = biological target: T1, STAT6; test: Inhibition of IL-4 (and IL-13) stimulated phosphorylation of STAT6 in Beas-2B cells, western blot; assay type: cell-based; set-up: endogenous in cells; host or cells: Beas-2B immortalized human airway cells; details: dose response
Experimental: Compound PM-241H inhibited the phosphorylation of Tyr641 of STAT6 in Beas-2B cells stimulated with IL-4 and IL-13.
(§1) Compounds were screened at 5 μM for their ability to inhibit IL-4 stimulated phosphorylation of STAT6 in Beas-2B immortalized human airway cells. Cells were treated with prodrug for 2 hr and then stimulated with IL-4. After 30 min cells were lysed and pSTAT6 and total STAT6 were measured with western blots (FIG. 7). Without being bound by theory, the inhibition observed is consistent with compounds entering cells, being stripped of the POM groups, binding to the SH2 domain of STAT6, blocking binding to IL-4Rα and preventing phosphorylation of Tyr641. […] Compounds resulting in <10% residual phosphorylation were taken on to MTS cytotoxicity assays and dose response assays. (FIG. 8). The cyclic aromatic amides PM-63I, PM-80I, PM-81I, and PM-86I were very potent with IC50 values from 50-500 nM. […] With the exception of PM-43I, concentrations that inhibit STAT6 phosphorylation are 20-100 fold lower than those resulting in toxicity. STAT6 inhibitors were assayed for their ability to inhibit the phosphorylation of STAT 1, STAT 3, STAT 5, Akt, and FAK, all processes that depend on SH2 domain-phosphotyrosine interactions (Mandal, P. K. et al. 2011). Serum starved MDA-MB-468 breast cancer cells were treated with STAT6 inhibitors for 2 hr and then were stimulated with EGF (See FIGS. 9A and 9B).
Cells or lungs were isolated and lysed in RIPA buffer (9806S; Cell Signaling, Danvers, Mass.), protein was quantified using BCA Protein Assay Reagent (23227; Thermo Fisher Scientific, Rockford, Ill.) and denatured in Laemmli sample buffer (161-0737; Bio-Rad, Hercules, Calif.) according to manufacturer's protocol. Proteins were separated on SDS-Page gels were hand-poured using a standard electrophoresis unit (Bio-Rad, Hecules, Calif.) and transferred to a membrane using iBlot Gel Transfer Device (IB 1001; Invitrogen, Grand Island, N.Y.). Membranes were blocked in 2% FBS PBST and probed for c-Src, p-c-Src, pErk1/2, Erk1/2, p STAT6, STAT6, pSTAT3, STAT3, pSTAT5, STAT5, Shp-1, and β-actin. Signal was detected with a ChemiDoc XRS+ system (BioRad; Hercules, Calif.).

Stat5 = test: Selectivity: Stat5 phosphorylation in EGF-stimulated MDA-MB-468 cells; assay type: cell-based; details: serum starved MDA-MB-468 cells, 2 hr
Experimental: as §1

[3] = Toxicity: weights of mice during challenge with different doses; assay type: in vivo; details: different doses
Experimental: (§2) The issue of toxicity was addressed with the newer synthetic STAT6 peptidomimetic agents 86i and 43i in two ways. First, the inventors determined the effect of each inhibitor on asthma-related parameters in fungus-challenged mice. […] Second, the weights of mice were measured during challenge with the different doses of both STAT6 inhibitors.

[4] = test system: asthma-related parameters; test: Dose effect on asthma-related parameters in fungus-challenged mice; assay type: in vivo
Experimental: as §2
Mice were challenged intranasally with a clinical isolate of 4×10^5 A. niger conidia every two days for a total of 8 challenges and treated with 50 μg of the indicated β-agonist, liposome vehicle (DLPC) and/or PM-242H (5 or 50 μg) intranasally as indicated and the allergic airway disease phenotype was determined according to previously described methods (Porter, P. et al. 2009).
Allergic airway disease was assessed as previously described (Porter, P. et al. 2009). Changes in respiratory system resistance (RRS) in response to intravenous acetylcholine challenge, bronchoalveolar lavage (BAL) fluid differential counts, and analysis of lung IL-4, IL-17A and IFN-γ producing cells by enzyme linked immunocell spot assay (ELISpot) were performed as previously described (Lee, S. H. et al. 2003; Polikepahad, S. et al. 2010).

[5] = select phosphate-containing STAT6 inhibitors
[6] = other phosphate-containing STAT6 inhibitors

## C/C(=C\C(=O)N[C@H](C(=O)N1CCC[C@H]1C(=O)N1CCN(C)CC1)C(C)(C)C)c1ccc(OP(=O)(O)O)cc1 [PM-67I-C]
STAT6 [1]; [5]
  IC50: 1900 ± 840 nM

## C/C(=C\C(=O)N[C@H](C(=O)N1CCC[C@H]1C(=O)N1CCc2ccccc21)C(C)(C)C)c1ccc(OP(=O)(O)O)cc1 [PM-59I]
STAT6 [1]; [5]
  IC50: 260 ± 90 nM

## C/C(=C\C(=O)N[C@H](C(=O)N1CCC[C@H]1C(=O)Nc1ccccc1)C(C)(C)C)c1ccc(OP(=O)(O)O)cc1 [PM-302H-A]
STAT6 [1]; [6]
  IC50: 268 ± 70 nM

## C/C(=C\C(=O)N[C@H]1CCCCN(CC(=O)N(C)c2ccccc2)C1=O)c1ccc(OP(=O)(O)O)cc1 [PM-28I]
STAT6 [1]; [5]
  IC50: 630 ± 13 nM

## C/C(=C\C(=O)N[C@H](C(=O)N1CCC[C@H]1C(=O)N1CCCCC1)C(C)(C)C)c1ccc(OP(=O)(O)O)cc1 [PM-67I-A]
STAT6 [1]; [5]
  IC50: 370 ± 90 nM

## C/C(=C\C(=O)N[C@H](C(=O)N1CCC[C@H]1C(=O)N1CCOCC1)C(C)(C)C)c1ccc(OP(=O)(O)O)cc1 [PM-67I-B]
STAT6 [1]; [5]
  IC50: 103 ± 50 nM

## C/C(=C\C(=O)N[C@H](C(=O)N1CCC[C@H]1C(=O)N(c1ccccc1)c1ccccc1)C(C)(C)C)c1ccc(OP(=O)(O)O)cc1 [PM-300H-B]
STAT6 [1]; [6]
  IC50: 89 ± 10 nM

## C/C(=C\C(=O)N[C@H](C(=O)N1CCC[C@H]1C(=O)N(C)C1CCCCC1)C(C)(C)C)c1ccc(OP(=O)(O)O)cc1 [PM-70I]
STAT6 [1]; [6]
  IC50: 230 ± 140 nM

## C/C(=C\C(=O)N[C@H](C(=O)N1CCC[C@H]1C(=O)N(C)c1ccccc1)C(C)(C)C)c1ccc(OP(=O)(O)O)cc1 [PM-301H]
STAT6 [1]; [6]
  IC50: 117 ± 30 nM

## C/C(=C\C(=O)NC1CCc2cccc3c2N(C1=O)[C@H](C(=O)N(C)c1ccccc1)C3)c1ccc(OP(=O)(O)O)cc1 (some centres unmarked) [PM-34I]
STAT6 [1]; [5]
  IC50: 280 ± 60 nM

## C/C(=C\C(=O)N[C@H](C(=O)N1CCC[C@H]1C(=O)N1CCCc2ccccc21)C(C)(C)C)c1ccc(OP(=O)(O)O)cc1 [PM-87I]
STAT6 [1]; [5]
  IC50: 240 ± 130 nM

## C/C(=C\C(=O)N[C@H](C(=O)N1CCC[C@H]1C(=O)N1CCc2ccccc21)C(C)(C)C)c1ccc(C(F)(F)P(=O)(OCOC(=O)C(C)(C)C)OCOC(=O)C(C)(C)C)cc1 [PM-63I]
STAT6 [2]
  IC50: 50 to 500 nM
Stat5
  cross reactivity with Stat5: significant cross reactivity

## C/C(=C\C(=O)N[C@H](C(=O)NC1CCCCN(c2ccccc2)C1=O)C(C)(C)C)c1ccc(OP(=O)(O)O)cc1 (some centres unmarked) [PM-60I]
STAT6 [1]; [5]
  IC50: 2330 ± 500 nM

## C/C(=C\C(=O)N[C@H](C(=O)N1CCC[C@H]1C(=O)N1CCc2ccccc2C1)C(C)(C)C)c1ccc(C(F)(F)P(=O)(OCOC(=O)C(C)(C)C)OCOC(=O)C(C)(C)C)cc1 [PM-81I]
STAT6 [2]
  IC50: 50 to 500 nM

## C/C(=C\C(=O)N[C@H](C(=O)N[C@@H](C)C(=O)N(C)c1ccccc1)C(C)(C)C)c1ccc(OP(=O)(O)O)cc1 [PM-26I]
STAT6 [1]; [6]
  IC50: 120 ± 16 nM

## C/C(=C\C(=O)N[C@H](C(=O)N1CCC[C@H]1C(=O)N(c1ccccc1)c1ccc(I)cc1)C(C)(C)C)c1ccc(OP(=O)(O)O)cc1 [PM-286H]
STAT6 [1]; [6]
  IC50: 53 ± 10 nM

## CCN(CC)C(=O)[C@@H]1CCCN1C(=O)[C@@H](NC(=O)/C=C(\C)c1ccc(OP(=O)(O)O)cc1)C(C)(C)C [PM-302H-B]
STAT6 [1]; [6]
  IC50: 377 ± 90 nM

## C/C(=C\C(=O)N[C@H](C(=O)N1CCC[C@H]1C(=O)N1CCCCc2ccccc21)C(C)(C)C)c1ccc(C(F)(F)P(=O)(OCOC(=O)C(C)(C)C)OCOC(=O)C(C)(C)C)cc1 [PM-80I]
STAT6 [2]
  IC50: 50 to 500 nM

## C/C(=C\C(=O)N[C@H](C(=O)N1CCC[C@H]1/C=C/CCc1ccccc1)C(C)(C)C)c1ccc(OP(=O)(O)O)cc1 [PM-9I]
STAT6 [1]; [5]
  IC50: 771 ± 290 nM

## CC(C)(C)[C@H](NC(=O)/C=C/c1ccc(OP(=O)(O)O)cc1)C(=O)N1CCC[C@H]1C(=O)N(c1ccccc1)c1ccc(I)cc1 [PM-287H]
STAT6 [1]; [6]
  IC50: 73 ± 10 nM

## C/C(=C\C(=O)N[C@H](C(=O)N1CCC[C@H]1C(=O)N1CCc2ccccc2C1)C(C)(C)C)c1ccc(OP(=O)(O)O)cc1 [PM-71-A]
STAT6 [1]; [5]
  IC50: 50 ± 40 nM

## CC(C)(C)[C@H](NC(=O)/C=C/c1ccc(OP(=O)(O)O)cc1)C(=O)N1CCC[C@H]1C(=O)N(c1ccccc1)c1ccccc1 [PM-300H-A]
STAT6 [1]; [6]
  IC50: 120 ± 40 nM

## C/C(=C\C(=O)N[C@H](C(=O)N1CCC[C@H]1CCCCc1ccccc1)C(C)(C)C)c1ccc(OP(=O)(O)O)cc1 [PM-10I]
STAT6 [1]; [5]
  IC50: 2090 ± 930 nM

## C/C(=C\C(=O)N[C@H](C(=O)N1CCC[C@H]1C(=O)N1CCCCC1)C(C)(C)C)c1ccc(C(F)(F)P(=O)(OCOC(=O)C(C)(C)C)OCOC(=O)C(C)(C)C)cc1 [PM-74I]
STAT6 [2]
  IC50: 50 nM

## C/C(=C\C(=O)N[C@H](C(=O)N1CCC[C@H]1C(=O)N1CCCc2ccccc21)C(C)(C)C)c1ccc(C(F)(F)P(=O)(OCOC(=O)C(C)(C)C)OCOC(=O)C(C)(C)C)cc1 [PM-86I]
[3]
  toxicity by weight gain over the period of drug administration: no toxicity
STAT6 [2]
  IC50: 50 to 500 nM
[4]; dose of 5 micrograms
  inhibition of airway hyperresponsiveness: intermediately effective
  inhibition of airway inflammation: maximally effective
  inhibition of lung IL-4 responses: maximally effective
[4]; dose of 50 micrograms
  inhibition of airway hyperresponsiveness: maximally effective
[4]; dose of 50 micrograms, to sham-treated levels
  lung inflammation and IL-4 responses: rebound
